Assay results published in patent US20250213527A1, “FORMULATIONS OF PSILOCYBIN ANALOGS AND METHODS OF USE” (priority 2021, published 2025).
“Also recorded” adds a separate entry of the source. Where a name gives a salt, the structure may show the parent alone. Marks after values point to notes of the source that are not given here.

Legend:
[1] = Psilocin stability with cyclodextrin complexes, 40 °C; details: 1% w/w cyclodextrin, up to 24 h
[2] = Psilocin stability in 0.1 M sodium citrate buffer at 4, 23 and 40 °C; type: physicochemical
Experimental: (§1) Preparation of 0.1 M sodium citrate buffer (pH 6.01): 2.427 g of sodium citrate dihydrate and 0.336 g of citric acid were dissolved in 80 ml of DI water. The pH was adjusted to 6.0 using a 1 M NaOH solution. The final volume was adjusted to 100 ml.

[3] = Psilocin stability in dilute citric acid solution at 4, 23 and 40 °C
[4] = Long-term (up to 25 days) psilocin stability in citric acid solution and sodium citrate buffer; type: physicochemical; details: 0.1 M
Experimental: The long-term stability (up to 25 days) of psilocin in a citric acid solution (0.1 M, pH 1.60) and a sodium citrate buffer (0.1 M, pH 6.01) at 4C and 23° C. was assessed.
as §1
Test solutions: Psilocin (1 mg/ml), was mixed with (i) sodium citrate buffer (0.1 M, pH 6.01) and (ii) citric acid solution (0.1 M, pH 1.60) in 1:1 v/v. The samples were stored at 4° C. and 23° C., and aliquots were sampled at designated timepoints (days 0, 7, 17, and 25).

[5] = Psilocin stability with antioxidants against metal induced degradation, 40 °C; details: 20 μM antioxidant, up to 24 h
[6] = Plasma pharmacokinetics and bioavailability in rats, oral gavage and intravenous (bolus); details: for Tmax: rat plasma, label = analyte, IAD = immediately after dosing
[7] = Psilocin stability comparison between sodium citrate and phosphate buffer, 40 °C; type: physicochemical; details: 0.1 M, 24 h
Experimental: The effect of buffer type and pH on the stability of psilocin was assessed.
as §1
Preparation of 0.1 M phosphate buffer (pH 6.0 and pH 7.5): Monosodium phosphate (0.339 g, 0.002 moles) and disodium phosphate (2.021 g, 0.014 moles) were dissolved in 80 ml water and the pH was adjusted as necessary using sodium hydroxide or phosphoric acid. The volume was adjusted to 100 ml using water.
Test solutions: Psilocin (1 mg/ml) was mixed with (i) 0.1 M sodium citrate buffer (pH 6.01), (ii) 0.1 M phosphate buffer (pH 6.0), and (iii) 0.1 M phosphate buffer (pH 7.5) in a 1:1 v/v ratio.

[8] = Psilocin stability in 0.1 M acid solutions with or without metal ions, 40 °C; type: physicochemical; details: up to 24 h
Excerpt: Ascorbic acid (AsA), acetic acid (AcA), tartaric acid (TA), fumaric acid (FA), citric acid (CA), malic acid (MA), benzenesulfonic acid (BSA), stearic acid (SA), sodium citrate dihydrate, monosodium phosphate hydrate, disodium phosphate were purchased from Sigma Aldrich. Aluminum (III) chloride (AlCl3) and iron (III) chloride (FeCl3) were purchased from Sigma Aldrich. Antioxidants, i.e., ethylenediaminetetraacetic acid (EDTA), ascorbic acid (AsA), L-cysteine (Cys), sodium metabisulfite (NamBiSO3) and propyl gallate (PG) were purchased from Sigma Aldrich. Hydroxypropyl-β-cyclodextrin (CAVASOL® W7 HP, CAVITRON® W7 HP7) and methyl-β-cyclodextrin (CAVASOL® W7 M) were provided by DuPont.
The following chromatographic conditions were used:
Diluent. The diluent used in the below studies was prepared as follows: 100 mL of acetonitrile (ACN) was mixed with 800 mL of water and 100 mL of 1.0 M citric acid and mixed well to prepare 1 L of diluent.
The stability of psilocin in 0.1 M solutions of various acids was tested.
Test solutions: To prepare the test solutions, 0.1 M solutions of AsA, AcA, TA, FA, CA, MA, BSA, and SA were prepared in DI water.

[9] = Maturation in 12 different solvents with thermal cycling, XRPD; type: physicochemical; details: slurries cycled between room temperature and 50 °C (4 hours each) for 3 days
Experimental: The resulting slurries were subjected to maturation with thermal cycling between room temperature and 50° C. (4 hours at each condition) for 3 days. Solids were then analysed by XRPD.

[10] = Solubility in FaSSGF (Fasted State Simulated Gastric Fluid) at 37 °C; type: physicochemical; details: free base component, average n=2
Experimental: Preparation of solutions: Solubility tests in FaSSGF were carried out at 37° C. and in water at room temperature for 2 hour and 6 hour timepoints. 50 mg solid was added to 0.5 mL media and incubated on an orbital shaker for 6 hours. (For free base in water 20 mg samples were used). Slurry/solution was sampled at 2 and 6 hours and aliquots were filtered through 0.45 micron PTFE filters. The filtrate was diluted 500 fold with the appropriate (same) media and injected on to UPLC.
(For free base in water ≥40 mg·mL^−1). […] Results were calculated based on a standard calibration curve of appropriate free base. Values quoted are for the free base component of each salt and are average of two (n=2) determinations.

[11] = Brain tissue concentrations in rats after intravenous dosing
[12] = Observation of isolated freeze dried solid; type: physicochemical; details: freeze dried citrate salt
Experimental: This gave an oil. Additional water was added until a solution was obtained. […] The obtained citrate salt was amorphous as shown by X-ray powder diffraction (XRPD) pattern in FIG. 37A.

[13] = Group 3, IV, psilocybin dosed 2.8 mg/kg

CN(C)CCc1c[nH]c2cccc(O)c12 [Compound I-7, 3-(2-(dimethylamino)ethyl)-1H-indol-4-ol]
stability with cyclodextrins against high temperature or metal induced degradation [1]: cyclodextrins did not impart stability | effect of metal salts (Fe3+ and Al3+) in citrate buffer ([2]; 0.1 M sodium citrate buffer pH 6.01): no detrimental effects | solution stability in non-citrate buffered solutions with Fe3+ and Al3+ ([2]; 4, 23 and 40 °C): significant psilocin degradation | solution stability without sodium citrate buffer ([2]; 4, 23 and 40 °C): nearly all psilocin being degraded by the 18 hour time point | degradation of psilocin in 0.1 M sodium citrate buffer ([2]; 40 °C, up to 24 h): 10-15% | solution stability in 0.1 M sodium citrate buffer ([2]; pH 6.01, 4 °C and room temperature, up to 24 h): greatly stabilized psilocin | solution stability without citric acid ([3]; 4, 23 and 40 °C): nearly all psilocin being degraded by the 18 hour time point | solution stability without citric acid in presence of Fe3+ and Al3+ ([3]; 4, 23 and 40 °C): significant psilocin degradation | solution stability with small quantities of citric acid (pH 3.2) ([3]; 4 °C and room temperature (23 °C), up to 24 h): greatly enhanced the stability of psilocin | psilocin stabilization (% psilocin remaining) with small quantities of citric acid ([3]; 40 °C, 24 hour time point): 30% | long-term stability in citric acid solution ([4]; pH 1.60, 4 °C and 23 °C): only minimal degradation | long-term stability in sodium citrate buffer, cold storage ([4]; pH 6.01, 4 °C): remained stable for up to 17 days | long-term stability in sodium citrate buffer, room temperature ([4]; pH 6.01, 23 °C): degradation of psilocin began within a week | stability against metal salts with antioxidants (EDTA, ascorbic acid, L-cysteine, sodium metabisulfite, propyl gallate) [5]: none of the antioxidants tested were able to provide stability | Tmax ([6]; Group 1, IV, psilocin + psilocin-d10 1 + 1 mg/kg): IAD | Tmax [6, 13]: IAD | onset, duration and variability of plasma exposure versus oral psilocybin ([6]; rats, oral): a faster onset, a shorter duration of effect, and less variability in drug exposure than oral psilocybin | stability in phosphate buffer pH 6.0 versus pH 7.5 [7]: better stability than at pH 7.5 | solution stability in 0.1 M acid solutions (solution-phase salts), with or without metal salts ([8]; all tested acids): excellent stability | solution stability of psilocin without acid [8]: nearly all psilocin being degraded within 24 hours | solution stability without acid in presence of Fe3+ and Al3+ metal ions [8]: significant psilocin degradation

CN(C)CCc1c[nH]c2cccc(O)c12 [Compound I-7b, tartrate salt of 3-(2-(dimethylamino)ethyl)-1H-indol-4-ol]
crystalline form by XRPD after maturation in 12 different solvents [9]: retained their initial crystalline form

CN(C)CCc1c[nH]c2cccc(O)c12 [Compound I-7j, Benzoate Salt of 3-(2-(dimethylamino)ethyl)-1H-indol-4-ol]
Solubility FaSSGF 6 hours [10]: 9.79 mg/mL | crystalline form by XRPD after maturation in 12 different solvents [9]: retained their initial crystalline form; also recorded: the same pattern 1 by XRPD was observed

CN(C)CCc1c[nH]c2cccc(O)c12 [Compound I-7a, benzenesulfonate salt of 3-(2-(dimethylamino)ethyl)-1H-indol-4-ol]
crystalline form by XRPD after maturation in 12 different solvents [9]: retained their initial crystalline form (pattern 1)

[2H]C([2H])([2H])N(C([2H])([2H])[2H])C([2H])([2H])C([2H])([2H])c1c[nH]c2cccc(O)c12 [Compound I-3j, Benzoate Salt of 3-(2-(bis(methyl-d3)amino)ethyl-1,1,2,2-d4)-1H-indol-4-ol]
Solubility FaSSGF 6 hours [10]: 12.79 mg/mL | crystalline form by XRPD after maturation in 12 different solvents [9]: retained their initial crystalline form (pattern 1)

CN(C)CCc1c[nH]c2cccc(O)c12 [Compound I-7c, Hemi-Fumarate Salt of 3-(2-(dimethylamino)ethyl)-1H-indol-4-ol]
Solubility FaSSGF 6 hours [10]: ≥ 52.25* mg/mL | crystalline form by XRPD after maturation in 12 different solvents [9]: complex polymorphism with multiple crystalline patterns obtained

CN(C)CCc1c[nH]c2cccc(OP(=O)(O)O)c12 [psilocybin, Psilocybin]
brain concentrations of psilocybin versus plasma [11]: brain concentrations of psilocybin are low | bioavailability ([6]; male, Sprague Dawley, rat, plasma, po, 14 mg/kg): < 0.1% | Tmax [6, 13]: IAD

CN(C)CCc1c[nH]c2cccc(O)c12 [Compound I-7e, Citrate Salt of 3-(2-(dimethylamino)ethyl)-1H-indol-4-ol]
behaviour of isolated amorphous solid [12]: hygroscopic and rapidly became sticky
